Bridges are numbered along the chain shown (N, C = ends).

Test [1] can be described thus: Three-week treatment of ZDF rats: fasting plasma glucose and HbA1c. The conditions noted are these: 5 μg/kg/day subcutaneously once daily, 3 weeks. It counts as in vivo, male ZDF (fa/fa) rats. As to the method: To assess the effects of the peptides in relation to regulation of blood glucose levels, male ZDF rats, which are the gold standard model of Type 2 Diabetes were treated for 3 weeks with the 3 most promising KBPs (023, 056 and 088) and an active comparator (UGP302/KBP-042). Male ZDF (fa/fa) rats were obtained at the age of 7 weeks from Charles River Laboratories (Kisslegg, Deutschland). All animals were housed at the animal facility at Nordic Bioscience with a constant temperature (21-23° C.) and relative humidity (55-65%) on a 12 h light/dark cycle with free access to Purina 5008 rat chow (Brogaarden, Lynge, Denmark) and tap water. At the age of 8 weeks, the animals were randomized into five groups of 8 rats each based upon fasting blood glucose and body weight (Vehicle (saline), UGP302/KBP-042 5 μg/kg/day, KBP-023 5 μg/kg/day, KBP-056 5 μg/kg/day and KBP-088 5 μg/kg/day) and dosing was done subcutaneously once daily. The animals were treated for a total of 3 weeks to assess the effect of the peptides on fasting blood glucose. Blood glucose was monitored using the Accu-Check® Avia monitoring system (Roche Diagnostics, Rotkreuz, Switzerland) and HbA1c levels by the DCA Vantage™ Analyzer (Siemens Healthcare Diagnostics, Deerfield, Ill.).

Test [2] addresses T1, Amylin Receptor (AMY-R) (Homo sapiens, UniProt P30988).
T1 construct: host or cells: CHO-K1
T1 sequence (P30988 25-474): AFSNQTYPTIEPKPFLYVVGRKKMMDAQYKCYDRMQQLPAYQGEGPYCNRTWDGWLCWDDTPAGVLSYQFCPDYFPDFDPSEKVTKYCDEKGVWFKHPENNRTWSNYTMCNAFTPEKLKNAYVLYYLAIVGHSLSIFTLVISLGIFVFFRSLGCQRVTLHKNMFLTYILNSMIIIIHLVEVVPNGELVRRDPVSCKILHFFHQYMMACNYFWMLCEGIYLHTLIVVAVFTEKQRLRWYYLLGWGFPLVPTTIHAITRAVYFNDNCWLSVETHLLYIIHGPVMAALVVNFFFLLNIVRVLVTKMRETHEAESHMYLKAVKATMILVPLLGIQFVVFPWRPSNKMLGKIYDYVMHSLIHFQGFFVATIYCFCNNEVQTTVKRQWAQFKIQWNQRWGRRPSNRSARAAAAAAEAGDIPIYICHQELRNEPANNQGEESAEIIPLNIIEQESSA
T1 sequence (O60896 24-148 partner): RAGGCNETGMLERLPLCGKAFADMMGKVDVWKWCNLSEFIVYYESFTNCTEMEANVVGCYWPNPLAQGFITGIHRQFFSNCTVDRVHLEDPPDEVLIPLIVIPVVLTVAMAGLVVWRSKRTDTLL
The test can be described thus: Competitive ligand binding against 125I-sCT on AMY-R cells. The note with it: CHO-K1 CALCR+RAMP3 cells; 0.1 nM 125I-sCT; 60 min, 37° C. An excerpt:
(§1) The following cell lines expressing the calcitonin, amylin and CGRP receptors were purchased and cultured according to the manufacturer's instructions. • 1. Calcitonin Receptor (CTR): U20S-CALCR from DiscoveRx (Cat. No.: 93-0566C3). • 2. Amylin Receptor (AMY-R): CHO-K1 CALCR+RAMP3 from DiscoveRx (Cat. No.: 93-0268C2). • 3. CGRP Receptor (CGRP-R): CHO-K1 CALCRL+RAMP1 from DiscoveRx (Cat. No.: 93-0269C2).
(§2) Corresponding to the beta-arrestin induction experiments, we performed competitive ligand binding experiments using the cells expressing the CTR and the AMY-R. In studying ligand binding on cells, 15.000 CTR or AMY-R cells were seeded in 96-well plate and cells were treated with 0.1 nM ^125I-conjugated sCT with or without the presence of unlabelled KBP in increasing doses for 60 min at 37° C. After incubation the supernatant was removed and cells were washed twice in 200 μl PBS. The cells were lysed using RIPA‡ buffer (30 mM M NaCl, 50 mM Tris-HCl, 5 mM EDTA, 1% Deoxycholic acid, […], Protease inhibitor tablet mini (1 tablet:10 ml)) and lysates as well were collected for measurement on a γ-counter.

The target in test [3] is T1, Amylin Receptor (AMY-R). The test can be described thus: PathHunter β-arrestin assay on the amylin receptor. It is filed as cell-based. The note with it: CHO-K1 CALCR+RAMP3 cells. How it is done: as §1
In independent bioassays, CTR, AMY-R and CGRP-R cells were treated with for the indicated timepoints with increasing doses of sCT, UGP-302/KBP-042 or the KBPs identified in Table 3 (0, 0.001, 0.01, 0.1, 1, 10, and 100 nM). […]
In this system, the GPCR is fused in frame with the small enzyme fragment ProLink™ and co-expressed in cells stably expressing a fusion protein of β-Arrestin and the larger, N-terminal deletion mutant of β-gal (called enzyme acceptor or EA). […] This interaction leads to an increase in enzyme activity that can be measured using chemiluminescent PathHunter® Detection Reagents.
The assay was performed in white 384 well plates (Greiner Bio-One, 784080). […] To quantify the GPCR-mediated β-arrestin recruitment the Pathhunter™ Detection Kit (93-0001, DiscoverX) was used and assay performed accordingly to the manufacturer's instructions.

Test [4] concerns the target T2, Calcitonin Receptor (CTR) (Homo sapiens, UniProt P30988).
T2 construct: host or cells: U2OS
T2 sequence (P30988 25-474): T1 sequence (P30988 25-474)
The test can be described thus: Competitive ligand binding against 125I-sCT on CTR cells. The conditions noted are these: U20S-CALCR cells; 0.1 nM 125I-sCT; 60 min, 37° C.
Text: as §1, §2

Test [5] in a line: Single-dose food intake in obese High-Fat-Diet rats. It is filed as in vivo. The conditions noted are these: single subcutaneous dose 1.25, 2.5, 5 μg/kg; obese rats fasted overnight. As to the method:
Rats were fed a High-Fat-Diet for 14 weeks prior to the experiment to induce obesity.
Further similar studies were undertaken over different time periods and with different peptides and the results are seen in FIG. 10 and FIGS. 11A-11B. The ability of KBP089 to suppress food intake over 72 hours was compared to that of KBP042 as control and the results are seen in FIG. 10.

Consider “KBP-088: SEQ ID NO: 12; AcCSNLSTCMLGRLSQELHRLQTFPKTDVGANAP-NH2, Cys1-Cys7 disulphide bridge (Ac-CSNLSTCMLGRLSQELHRLQTFPKTDVGANAP-NH2; disulfide 1-7; SMILES CSCC[C@H](NC(=O)[C@@H]1CSSC[C@H](NC(C)=O)C(=O)N[C@@H](CO)C(=O)N[C@@H](CC(N)=O)C(=O)N[C@@H](CC(C)C)C(=O)N[C@@H](CO)C(=O)N[C@@H]([C@@H](C)O)C(=O)N1)C(=O)N[C@@H](CC(C)C)C(=O)NCC(=O)N[C@@H](CCCNC(=N)N)C(=O)N[C@@H](CC(C)C)C(=O)N[C@@H](CO)C(=O)N[C@@H](CCC(N)=O)C(=O)N[C@@H](CCC(=O)O)C(=O)N[C@@H](CC(C)C)C(=O)N[C@@H](Cc1c[nH]cn1)C(=O)N[C@@H](CCCNC(=N)N)C(=O)N[C@@H](CC(C)C)C(=O)N[C@@H](CCC(N)=O)C(=O)N[C@H](C(=O)N[C@@H](Cc1ccccc1)C(=O)N1CCC[C@H]1C(=O)N[C@@H](CCCCN)C(=O)N[C@H](C(=O)N[C@@H](CC(=O)O)C(=O)N[C@H](C(=O)NCC(=O)N[C@@H](C)C(=O)N[C@@H](CC(N)=O)C(=O)N[C@@H](C)C(=O)N1CCC[C@H]1C(N)=O)C(C)C)[C@@H](C)O)[C@@H](C)O)”, for which, in test [1], the HbA1c result is on record as “highly active” and the “fasting plasma glucose (FPG)” value is recorded as “highly active”. The “competitive binding affinity on the AMY-R” value with Amylin Receptor (AMY-R) [2] is listed as “better than the other ligands, particularly on the AMY-R”. Further, the “activation of the AMY-R (β-arrestin dose-response)” value in the test with Amylin Receptor (AMY-R) [3] is “more potent that the classical AMY-R agonist sCT”. The “competitive binding affinity on the CTR” value in test [4] is on record as “better than the other ligands”. Moreover, in test [5], the “food intake, 0-4 hours” value is reported as “led to a reduction in food intake”; the “food intake, 4-24 hours” value was “the effect was maintained to 24 hours”; the “food intake, 24-48 hours” value was “only KBP-089 led to a reduction in food intake”.
